In patent US20120052025A1 (Colgate-Palmolive Company, priority 2009, published 2012):
In brackets after ≈: the same amount, converted by molar mass.

Assays:
[1] = Decomposition in buffered vs unbuffered pH 7.2 formulation; format: physicochemical; details: pH 7.2, phosphate buffer, 14 days
Protocol: Two pH 7.2 formulations of Compound 1 are prepared, one with phosphate buffer, one without, and the decomposition of Compound 1 is measured over 14 days. While measurable decomposition is seen in both formulations, the slope of the rate of decomposition Compound 1 in the buffered formulation is decreased by 3.3 fold compared to that of the unbuffered formulation.

[2] = system: S. sanguinis; assay: Minimum inhibitory concentration; format: cell-based; details: Streptococcus sanguinis, Gram Positive, ethanol vehicle
Excerpt: (§1) The minimum inhibitory concentration for COMPOUND 1 against common oral bacteria is found to be as follows. Ethanol is used as vehicle.

[3] = system: S. sobrinus; assay: Minimum inhibitory concentration; format: cell-based; details: Streptococcus sobrinus, Gram Positive, ethanol vehicle
Excerpt: as §1

[4] = system: A. viscosus; assay: Minimum inhibitory concentration; format: cell-based; details: Actinomyces viscosus, Gram Positive, ethanol vehicle
Excerpt: as §1

[5] = system: S. gordonii; assay: Minimum inhibitory concentration; format: cell-based; details: Streptococcus gordonii, Gram Positive, ethanol vehicle
Excerpt: as §1

[6] = system: L. casei; assay: Minimum inhibitory concentration; format: cell-based; details: Lacticaseibacillus casei, Gram Positive, ethanol vehicle
Excerpt: as §1

[7] = system: S. mutans; assay: Minimum inhibitory concentration; format: cell-based; details: Streptococcus mutans, Gram Positive, ethanol vehicle
Excerpt: as §1

[8] = system: F. nucleatum; assay: Minimum inhibitory concentration; format: cell-based; details: Fusobacterium nucleatum, Gram Negative, ethanol vehicle
Excerpt: as §1

[9] = system: P. intermedia; assay: Minimum inhibitory concentration; format: cell-based; details: Prevotella intermedia, Gram Negative, ethanol vehicle
Excerpt: as §1

[10] = system: A. actinomycetemcomitans; assay: Minimum inhibitory concentration; format: cell-based; details: Aggregatibacter actinomycetemcomitans, Gram Negative, ethanol vehicle
Excerpt: as §1

[11] = system: A. naeslundii; assay: Minimum inhibitory concentration; format: cell-based; details: Actinomyces naeslundii, Gram Positive, ethanol vehicle
Excerpt: as §1

[12] = system: V. parvula; assay: Minimum inhibitory concentration; format: cell-based; details: Veillonella parvula, Gram Negative, ethanol vehicle
Excerpt: as §1

[13] = system: S. oralis; assay: Minimum inhibitory concentration; format: cell-based; details: Streptococcus oralis, Gram Positive, ethanol vehicle
Excerpt: as §1

[14] = system: P. gingivalis; assay: Minimum inhibitory concentration; format: cell-based; details: Porphyromonas gingivalis, Gram Negative, ethanol vehicle
Excerpt: as §1

[15] = system: biofilm; assay: Biofilm disruption assay; format: cell-based
Protocol: The solution of 0.5% AN0128.0.75% SLS. 50% Fluraflo L4370 in water is then tested in a biofilm disruption assay.
A solution of 2% Compound 1 in PEG 300 is diluted 1:1 with 2% SLS in water to produce a solution composed of 1% Compound 1, 1% SLS, 50% PEG 300 in water which is then tested in a biofilm disruption assay.
(§2) The properties of Compound 1 in conjunction with other excipients are further evaluated by diluting a solution of Compound 1 in PEG 300 into other solvents such as propylene glycol and glycerin at varying ratios. A solution containing 1% Compound 1 in 19% PEG 300 and 80% propylene glycol is clear. This solution is then diluted 1:1 with 1% SLS in water to produce a solution composed of 0.5% Compound 1, 0.5% SLS, 9.5% PEG 300 and 40% propylene glycol in water which is then tested in the biofilm disruption assay. The percent reduction achieved versus the negative control is 80%. […] Similar results are achieved with PEG and glycerin.

[16] = format: physicochemical
Excerpt: Although some borinic esters are effective as antibacterial agents, incorporating borinic esters into oral care compositions presents difficulties, as borinic esters have proven to be unstable when added to aqueous compositions. For example, borinic esters may hydrolyze and decompose, e.g., in oral care compositions. Additionally, borinic esters may be insoluble in aqueous compositions. […] There remains a need to develop compositions and methods to incorporate borinic acid derivatives stably in oral care compositions.
The poor solubility of Compound A presents some formulation challenges. Its solubility in water is less than 100 ppm, and its solubility in flavor oils (often used to solubilize actives) is less than 0.5%. We have discovered that co-polymers of polyethylene glycol and polypropylene glycol are able to solubilize Compound 1. Fluraflo L4370 (BASF) is able to solubilize 1% Compound 1 (% w/w). It is necessary to stir the solution over low heat to fully solubilize the active. The resulting solution is cloudy, reflecting the nature of the Fluraflo L4370 itself. The solution of 1% Compound 1 in Fluraflo L4370 is diluted 1:1 with 1.5% SLS in water to produce a clear solution, composed of 0.5% AN0128, 0.75% SLS, 50% Fluraflo L4370 in water Similar results are achieved using Fluracare L1220.
We further discovered that low molecular weight polyethylene glycol 300 (PEG 300) (Dow Chemical Company) solubilizes 10% Compound 1 (% w/w). It is necessary to stir the solution over low heat to fully solubilize the active. The resulting solution is clear with a slight yellow tint due to the color of Compound 1. […] Therefore, we conclude that solvents containing oligomers and/or polymers of ethylene glycol are capable of solubilizing Compound 1 and are suitable for formulation.
as §2

[17] = Stability of formulations with and without antioxidants; format: physicochemical
Excerpt: The stability of three formulations of Compound 1 are compared, the formulations being identical except that one is without any antioxidants, one contains α-tocopherol, and the third contains sodium ascorbylphosphate.

## Cc1ccc([B-]2(c3ccc(C)c(Cl)c3)OC(=O)c3ncccc3[OH+]2)cc1Cl [Compound 1]
[1]
  decrease of the slope of the rate of decomposition, buffered vs unbuffered formulation: 3.3 fold
[2]
  MIC: 0.25 to 0.5 µg/mL (≈ 0.625 to 1.25 µM)
[3]
  MIC: 0.12 to 0.5 µg/mL (≈ 0.3 to 1.25 µM)
[4]
  MIC: 1 µg/mL (≈ 2.5 µM)
[5]
  MIC: 0.12 to 0.25 µg/mL (≈ 0.3 to 0.625 µM)
[6]
  MIC: 2 to 3.9 µg/mL (≈ 5 to 9.75 µM)
[7]
  MIC: 0.25 to 0.5 µg/mL (≈ 0.625 to 1.25 µM)
[8]
  MIC: 1 to 2 µg/mL (≈ 2.5 to 5 µM)
[9]
  MIC: 3.9 to 7.8 µg/mL (≈ 9.75 to 19.5 µM)
[10]
  MIC: > 15.6 µg/mL
[11]
  MIC: 1 to 2 µg/mL (≈ 2.5 to 5 µM)
[12]
  MIC: 7.8 µg/mL (≈ 19.5 µM)
[13]
  MIC: 0.12 to 0.25 µg/mL (≈ 0.3 to 0.625 µM)
[14]
  MIC: ≤ 0.12 µg/mL
[15]; solution of 0.5% AN0128, 0.75% SLS, 50% Fluraflo L4370 in water
  percent reduction versus the negative control: 65%
[15]; solution of 0.5% Compound 1, 0.5% SLS, 9.5% PEG 300 and 40% propylene glycol in water
  percent reduction versus the negative control: 80%
[15]; solution of 1% Compound 1, 1% SLS, 50% PEG 300 in water
  percent reduction versus the negative control: 76%
[16]
  amount of Compound 1 solubilized by Fluraflo L4370: 1 % w/w
  amount of Compound 1 solubilized by PEG 300: 10 % w/w
  solubility in oils: less than 0.5%
  solubility in water: 100 ppm
  solubilization by PEG 600: can solubilize
[16]; 1% Compound 1 in 19% PEG 300 and 80% propylene glycol
  appearance of solution: clear
[17]; formulation containing sodium ascorbylphosphate vs without antioxidants
  decomposition in formulation: significantly reduced
[17]; formulation containing α-tocopherol vs without antioxidants
  decomposition in formulation: even less
